Test results from patent US6555114B1, “Immunodominant human T-cell epitopes of hepatitis C virus” (Innogenetics N.V., priority 1993, dated 2003).

System: PBMC from 32 patients with chronic HCV
Test: T cell proliferation assay ((3H)-thymidine incorporation, stimulation index) with PBMC of chronic HCV patients
Format: cell-based, human
Conditions: for number of patients that recognized the single peptide: 8 proliferative responders to pools 2 and/or 3 among 11 interferon-responder HCV patients; for LPR in αIFN responders (summary of Table 7): both αIFN responders tested; for lymphoproliferative response (LPR) to peptide pools and single peptides: IFN responder, LPR to pools 2 and/or 3
[1] = patient 615, pools 2 assays, single peptides 1 assay
[2] = patient 618, pools 4 assays, single peptides 1 assay
[3] = patient 620, αIFN non-responder (NR), week 20 of αIFN therapy
[4] = patient 621, pools 4 assays, single peptides 1 assay
[5] = patient 626, pools 9 assays, single peptides 5 assays
[6] = patient 626, αIFN responder (R), week 14 of αIFN therapy
[7] = patient 627, αIFN non-responder (NR), week 54 of αIFN therapy
[8] = patient 632, pools 8 assays, single peptides 4 assays
[9] = patient 634, pools 2 assays, single peptides 1 assay
[10] = patient 636, αIFN responder (R), week 28 of αIFN therapy
[11] = patient 637, αIFN non-responder (NR), week 45 of αIFN therapy
[12] = patient 639, pools 4 assays, single peptides 2 assays

Substance	number of patients that recognized the single peptide	LPR in αIFN responders (summary of Table 7)	lymphoproliferative response (LPR) to peptide pools and single peptides [1]	lymphoproliferative response (LPR) to peptide pools and single peptides [2]	stimulation index (SI), T-cell recognition [3]	lymphoproliferative response (LPR) to peptide pools and single peptides [4]	lymphoproliferative response (LPR) to peptide pools and single peptides [5]	stimulation index (SI), T-cell recognition [6]	stimulation index (SI), T-cell recognition [7]	lymphoproliferative response (LPR) to peptide pools and single peptides [8]	lymphoproliferative response (LPR) to peptide pools and single peptides [9]	stimulation index (SI), T-cell recognition [10]	stimulation index (SI), T-cell recognition [11]	lymphoproliferative response (LPR) to peptide pools and single peptides [12]	lymphoproliferative response (LPR) to peptide pools and single peptides (patient 604, pools 2 assays, single peptides 1 assay)	LPR in αIFN non-responders (summary of Table 7) (two αIFN non-responders)
VLEDGVNYATGNLPGCSFSI (hepatitis C virus) [C27]	6	highest LPR	+ (significant when it induces SI's 3 in at least half of the assays performed)	+ (significant when it induces SI's 3 in at least half of the assays performed)	— (Only SI equal or greater than 3 are shown.)	+ (significant when it induces SI's 3 in at least half of the assays performed)	+ (significant when it induces SI's 3 in at least half of the assays performed)	8.2	— (Only SI equal or greater than 3 are shown.)	+ (significant when it induces SI's 3 in at least half of the assays performed)	+ (significant when it induces SI's 3 in at least half of the assays performed)	5.8	— (Only SI equal or greater than 3 are shown.)	+ (significant when it induces SI's 3 in at least half of the assays performed)		
LMGYIPLVGAPLGGAARALA (hepatitis C virus) [C23]	3		+ (significant when it induces SI's 3 in at least half of the assays performed)		4.1			— (Only SI equal or greater than 3 are shown.)	— (Only SI equal or greater than 3 are shown.)	+ (significant when it induces SI's 3 in at least half of the assays performed)		— (Only SI equal or greater than 3 are shown.)	— (Only SI equal or greater than 3 are shown.)		+ (significant when it induces SI's 3 in at least half of the assays performed)	high PLR
Tetanus toxoid [TT, reference compound]					4.1			14.5	19.1			3.6	4.2			
LYGNEGCGWAGWLLSPRGSR (hepatitis C virus) [C15]								— (Only SI equal or greater than 3 are shown.)	— (Only SI equal or greater than 3 are shown.)			— (Only SI equal or greater than 3 are shown.)	— (Only SI equal or greater than 3 are shown.)			
GGAARALAHGVRVLEDGVNY (hepatitis C virus) [C25]	5	highest LPR		+ (significant when it induces SI's 3 in at least half of the assays performed)	— (Only SI equal or greater than 3 are shown.)	+ (significant when it induces SI's 3 in at least half of the assays performed)	+ (significant when it induces SI's 3 in at least half of the assays performed)	6	— (Only SI equal or greater than 3 are shown.)	+ (significant when it induces SI's 3 in at least half of the assays performed)		9.7	— (Only SI equal or greater than 3 are shown.)	+ (significant when it induces SI's 3 in at least half of the assays performed)		
PTDPRRRSRNLGKVIDTLTC (hepatitis C virus) [C19]	3	highest LPR						— (Only SI equal or greater than 3 are shown.)	— (Only SI equal or greater than 3 are shown.)	+ (significant when it induces SI's 3 in at least half of the assays performed)	+ (significant when it induces SI's 3 in at least half of the assays performed)	7.1	— (Only SI equal or greater than 3 are shown.)	+ (significant when it induces SI's 3 in at least half of the assays performed)		
GRTWAQPGYPWPLYGNEGCG (hepatitis C virus) [C13]		highest LPR						4.4	— (Only SI equal or greater than 3 are shown.)			6.3	— (Only SI equal or greater than 3 are shown.)			
LPGCSFSIFLLALLSCLTVP [C29]					— (Only SI equal or greater than 3 are shown.)			— (Only SI equal or greater than 3 are shown.)	— (Only SI equal or greater than 3 are shown.)			— (Only SI equal or greater than 3 are shown.)	— (Only SI equal or greater than 3 are shown.)			
